In paper PMC12275099, “VX-445 (elexacaftor) inhibits chloride secretion across human bronchial epithelial cells by directly blocking KCa3.1 channels” (PNAS Nexus, 2025):

Columns and labels:
[1] = tested on: BKCa (KCa1.1, KCNMA1) channels; parameters: method as in PMID 38954478; details: primary HBEs and HEK cells heterologously expressing the channel; cited from earlier work
KCa2.3 = KCa2.3 (Homo sapiens, UniProt Q9UGI6); test: Excised inside-out patch-clamp on HEK cells expressing KCa2.3; assay type: biochemical; details: 10 µM; 1 µM free Ca2+; n = 4; VX-659 added subsequent to VX-445; read-out: inhibition of KCa2.3 currents
Experimental: As above, we performed excised patch-clamp recordings on HEK cells heterologously expressing KCa2.3 or KCa2.2, in order to assess the activity of C2 CFTR corrector compounds. […] In contrast, the subsequent addition of 10 µM VX-659 yielded an almost complete inhibition of KCa2.3 currents, averaging 91 ± 3% (n = 4).
HEK cells stably expressing KCa3.1 (IK1, SK4), KCa2.3 (SK3), and KCa2.2 (SK2) were generated and cultured as previously described by us ([37], [66–71]).
HEK cells expressing the channel of interest were plated onto poly-L-lysine-coated glass coverslips 1–2 days prior to patch-clamp analysis. Electrophysiological recordings in the excised, inside-out, and whole-cell patch-clamp configurations were performed as recently described ([14]). For excised patch-clamp recordings, the pipette solution contained (in mM): 140 K-gluconate, 5 KCl, 1 CaCl2, 1 MgCl2, and 10 HEPES. The pH was adjusted to 7.2 with KOH. The bath solution contained (in mM): 145 K-gluconate, 5 KCl, 1.3 MgCl2, 10 HEPES, and 1 EGTA. Sufficient CaCl2 was added to obtain the desired free Ca^2+ concentration at a pH of 7.2 (adjusted with KOH). When recording KCa3.1 channels, ATP (300 µM) was added to the bath to diminish channel rundown ([73]). All recordings were carried out at a voltage of −100 mV, referenced to the extracellular compartment, as is standard. The apparent Ki and Hill coefficient for each CFTR corrector on KCa3.1, KCa2.3, and KCa2.2 were determined during a continuous recording by step-wise addition of increasing concentrations of compound and fitting the resultant relative remaining current to a Hill equation (Prism v. 10.1.0). The zero current level was determined by the addition of a 0 Ca^2+ solution (zero-added Ca^2+ plus 1 mM EGTA) at the end of the experiment. […] Current–voltage relationships were determined by stepping from a holding potential of −80 mV to +80 mV in 20 mV increments for 400 ms. The middle 300 ms of each trace was selected to avoid any influence of capacitive transients, and average currents were calculated for each voltage via the I–V tool in Clampfit. […]

Sequence of KCa2.3 (Q9UGI6 whole entry): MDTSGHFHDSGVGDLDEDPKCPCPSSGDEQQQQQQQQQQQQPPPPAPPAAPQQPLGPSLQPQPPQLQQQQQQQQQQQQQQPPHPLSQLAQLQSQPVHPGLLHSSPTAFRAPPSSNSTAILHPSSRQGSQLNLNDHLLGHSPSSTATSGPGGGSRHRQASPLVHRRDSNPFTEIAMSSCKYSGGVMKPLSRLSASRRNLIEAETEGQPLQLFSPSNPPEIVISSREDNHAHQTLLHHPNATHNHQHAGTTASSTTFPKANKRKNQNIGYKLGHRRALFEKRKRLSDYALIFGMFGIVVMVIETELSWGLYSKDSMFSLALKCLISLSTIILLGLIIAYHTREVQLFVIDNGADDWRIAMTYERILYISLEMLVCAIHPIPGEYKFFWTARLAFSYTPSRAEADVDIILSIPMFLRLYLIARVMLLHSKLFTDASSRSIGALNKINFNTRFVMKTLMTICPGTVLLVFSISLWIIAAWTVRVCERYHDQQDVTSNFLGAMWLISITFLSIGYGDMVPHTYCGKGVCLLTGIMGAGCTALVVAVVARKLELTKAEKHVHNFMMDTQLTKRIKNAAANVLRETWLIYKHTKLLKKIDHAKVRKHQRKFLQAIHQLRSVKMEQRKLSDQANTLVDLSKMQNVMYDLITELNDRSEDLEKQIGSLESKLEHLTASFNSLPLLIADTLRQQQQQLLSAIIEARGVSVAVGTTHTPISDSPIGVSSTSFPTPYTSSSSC

In the case of `Cc1nn(C)cc1S(=O)(=O)NC(=O)c1ccc(-n2ccc(OCC(C)(C)C(F)(F)F)n2)nc1N1C[C@@H](C)CC1(C)C` [VX-445, elexacaftor], the “effect on BKCa” value [1] is given as “act as direct potentiators” and the inhibition at 10 µM (KCa2.3) is given as 15 ± 5%.
